In patent publication US20240122179A1, “AUXINIC HERBICIDES AND METHODS OF USE THEREOF” (CORTEVA AGRISCIENCE LLC, priority 2021, published 2024) one finds pest or weed control data, which are given here for 8 compounds.

Holding throughout (assay): Postemergence herbicide evaluation, percent reduction in plant size vs untreated control, 21 days after treatment
The test system of test [1] is Amaranthus rudis (AMATA). The class given is in vivo, Amaranthus rudis (tall water hemp). As to conditions: Amaranthus tuberculatus, post-emergence, 504 h, AMATA, postemergence, read-out: Control/Injury; for pest or weed control at 140 g/ha: rate 140 g ae/ha; for pest or weed control at 280 g/ha: rate 280 g ae/ha. As for the experimental part: (§1) Plants were grown in a soil media composed of 90% by volume Promix BX (Premier Tech Horticulture, Quakertown, PA) and 10% Profile Greens Grade (Profile Products LLC, Buffalo Grove, IL). Promix BX contains approximately 83% Sphagnum Peat Moss, 13% Perlite, 5% vermiculite, and proprietary amounts of limestone, starter fertilizer, and wetting agent. Profile Greens Grade is a sand-sized granule formed from calcining illite and montmorillonite clay. Several seeds of each species were planted in 10 cm square pots and top watered twice daily. Plant material was propagated in a warm greenhouse with temperature ranging from 25 to 28° C. and 50 to 60% relative humidity at the Corteva Global Headquarters (Indianapolis, Indiana, USA). Natural light was supplemented with 1000-watt metal halide overhead lamps with an average illumination of 500 μE m^−2 s^−1 photosynthetic active radiation for 16 consecutive hours each day. Plants were top-watered prior to herbicide application and sub-watered after herbicide application.
(§2) Appropriate amounts of test materials were weighed out into glass vials in their technical form to deliver either 140 or 280 g acid equivalent (ae)/ha. The samples were dissolved in 3 ml of Solvent 1. Solvent 1 is 97% acetone and 3% dimethyl sulfoxide and serves as a general-purpose solvent (GPS) for dissolving technical materials. […] The samples were then diluted to their final concentration using 17 ml of solvent 2 for a total of 20 ml of spray solution. Solvent 2 contains 41.58% GPS, 45.53% water, 11.88% isopropyl alcohol, 0.99% crop oil concentrate and 0.02% Trition X-155 surfactant. All percentages are listed on a volume basis. Dicamba diglycolamine was applied as a formulated herbicide, Clarity™ and diluted with solvent 2 to compare all materials in the same spray solution.
(§3) Herbicide applications were made to 3 to 4 replicates of each plant species at the 2 to 8 leaf stage, depending on the species. Treatments were applied with a research track-sprayer (Generation III Research Sprayer manufactured by DeVries Manufacturing in Hollandale, MN, USA) calibrated to deliver a spray volume of 187 L/ha. The track-sprayer was fitted with an 8003E nozzle from Spray Systems Company (North Avenue and Schmale Road, P.O. Box 7900, Wheaton, IL 60187), and used a spray pressure of 276 kPa pressure and a speed of 3.1 km/h. The nozzle height was 46 cm above the plant canopy. The experimental design used for the trials was a randomized complete block with 3 or 4 replications per treatment. After application, plants were placed on carts according to the randomization and returned to the greenhouse. Plants were sub-watered after treatment with Indianapolis city water or fertilized three times a week with a commercial fertilizer solution (Jack's Professional 15-5-15 4 Ca 2 Mg fertilizer (manufactured by JR PETERS INC., 6656 Grant Way, Allentown, PA 18106; www.jrpeters.com). Percent visual control assessments were made on a scale of 0 to 100% (where 0 was no control and 100 was complete plant death) at 7, 14, and 21 days after treatment.
In conformity with the methods outlined in Example 49, the effect of representative experimental compounds on the growth of Amaranthus rudis (AMATA), common name tall water hemp, was determined at 2 different levels (respectively, 140 and 280 g acid equivalent (ae)/ha) of the experimental actives tested. Plants were treated with one of the compounds, a control plant was not treated. Twenty-one days after treatment, the plants were measured. The data is present as a percent reduction in plant size relative to the untreated control.

For test [2], the system named is Ambrosia artemisiifolia (AMBEL). Format: in vivo, Ambrosia artemisiifolia (common ragweed). The following applies: post-emergence, 504 h, AMBEL, postemergence, read-out: Control/Injury; for pest or weed control at 140 g/ha: rate 140 g ae/ha; for pest or weed control at 280 g/ha: rate 280 g ae/ha. As for the experimental part:
as §1, §2, §3
In conformity with the methods outlined in Example 49, the effect of representative experimental compounds on the growth of Ambrosia artemisiifolia (AMBEL), (common ragweed), was determined at 2 different levels (respectively, 140 and 280 g acid equivalent (ae)/ha) of the experimental actives tested. Plants were treated with one of the compounds, a control plant was not treated. Twenty-one days after treatment, the plants were measured. The data is present as a percent reduction in plant size relative to the untreated control.

Test [3] relates to Kochia scoparia (KCHSC). Format: in vivo. The following applies: Bassia scoparia, post-emergence, 504 h, KCHSC, postemergence, read-out: Control/Injury; for pest or weed control at 140 g/ha: rate 140 g ae/ha; for pest or weed control at 280 g/ha: rate 280 g ae/ha. As for the experimental part:
as §1, §2, §3
In conformity with the methods outlined in Example 49, the effect of representative experimental compounds on the growth of Kochia scoparia (KCHSC) was determined at 2 different levels (respectively, 140 and 280 g acid equivalent (ae)/ha) of the experimental actives tested. Plants were treated with one of the compounds, a control plant was not treated. Twenty-one days after treatment, the plants were measured. The data is present as a percent reduction in plant size relative to the untreated control.

Test [4] has as its system Amaranthus palmeri (AMAPA). The class given is in vivo, Amaranthus palmeri (Palmer amaranth). The following applies: post-emergence, 504 h, postemergence, read-out: Control/Injury; for pest or weed control at 140 g/ha: rate 140 g ae/ha; for pest or weed control at 280 g/ha: rate 280 g ae/ha. As for the experimental part:
as §1, §2, §3
In conformity with the methods outlined in Example 49, the effect of representative experimental compounds on the growth of Amaranthus palmeri (AMAPA), common name, Palmer amaranth, was determined at 2 different levels (respectively, 140 and 280 g acid equivalent (ae)/ha) of the experimental actives tested. Plants were treated with one of the compounds, a control plant was not treated. Twenty-one days after treatment, the plants were measured. The data is present as a percent reduction in plant size relative to the untreated control.

Test [5] relates to Conyza canadensis (L.) (ERICA). Format: in vivo, Conyza canadensis (L.) (Horseweed). The following applies: Erigeron canadensis, post-emergence, 504 h, ERICA, postemergence, read-out: Control/Injury; for pest or weed control at 140 g/ha: rate 140 g ae/ha; for pest or weed control at 280 g/ha: rate 280 g ae/ha. As for the experimental part:
as §1, §2, §3
In conformity with the methods outlined in Example 49, the effect of representative experimental compounds on the growth of Conyza canadensis (L.), (ERICA), common name, Horseweed, was determined at 2 different levels (respectively, 140 and 280 g acid equivalent (ae)/ha) of the experimental actives tested. Plants were treated with one of the compounds, a control plant was not treated. Twenty-one days after treatment, the plants were measured. The data is present as a percent reduction in plant size relative to the untreated control.

Setting [6] is: R-AMAPA, percent reduction vs untreated control, 21 days after treatment.
Setting [7] is: percent reduction vs untreated control, 21 days after treatment.
Setting [8] is: percent reduction vs untreated, 21 days after treatment.

Read-outs that look alike come from different tables or passages of the source.

For the compound `COc1c(Cl)ccc(Cl)c1C(=O)O/N=C/C(C)=O` [Compound A-69], the pest or weed control at 140 g/ha is 67% in test [1]; 80% in test [2]; 91% in test [3]; 70% in test [4] (setting [6]); 88% in test [5] (setting [7]). Besides, the pest or weed control at 280 g/ha turned out to be 80% in test [1]; 96% in test [2]; 96% in test [3]; 80% in test [4] (setting [6]); 91% in test [5] (setting [7]).
For `COc1c(Cl)ccc(Cl)c1C(=O)O/N=C/c1ccccc1` [Compound A-70], the pest or weed control at 140 g/ha turned out to be 52% in test [1]; 78% in test [2]; 73% in test [3]; 72% in test [4] (setting [6]); 87% in test [5] (setting [7]). For the same compound, the pest or weed control at 280 g/ha was 77% in test [1]; 97% in test [2]; 88% in test [3]; 78% in test [4] (setting [6]); 93% in test [5] (setting [7]).
With `COc1c(Cl)ccc(Cl)c1C(=O)ON(C)C(=O)c1ccccc1` [Compound A-71], the pest or weed control at 140 g/ha stood at 83% in test [1]; 83% in test [2]; 85% in test [3]; 70% in test [4] (setting [6]); 85% in test [5] (setting [7]). The pest or weed control at 280 g/ha in test [1] came to 80%; in test [2], 93%; in test [3] it was 87%; in test [4] (setting [6]) it was 82%; in test [5] (setting [7]), 92%.
`COc1c(Cl)ccc(Cl)c1C(=O)ON(Cc1ccccc1)Cc1ccccc1` [Compound A-72]: the pest or weed control at 140 g/ha in test [1] worked out at 63%; in test [2], 82%; in test [3] it was 82%; in test [4] (setting [6]), 72%; in test [5] (setting [7]), 83%. The pest or weed control at 280 g/ha in test [1] was 74%; in test [2], 98%; in test [3] it was 94%; in test [4] (setting [6]) it was 83%; in test [5] (setting [7]), 92%.
Turning to `COc1c(Cl)ccc(Cl)c1C(=O)NOc1ccc([N+](=O)[O-])cc1` [Compound A-97], the pest or weed control at 140 g/ha was determined as 55% in test [1]; 73% in test [2]; 73% in test [3] (setting [8]); 50% in test [4] (AMAPA); 18% in test [5]; 75% in test [5] (setting [7]). Moreover, the pest or weed control at 280 g/ha in test [1] amounted to 68%; in test [2] it was 90%; in test [3] (setting [8]), 88%; in test [4] (AMAPA) it was 65%; in test [5], 40%; in test [5] (setting [7]), 70%.
Consider `COc1c(Cl)ccc(Cl)c1C(=O)O/N=C/c1cc(/C=N/OC(=O)c2c(Cl)ccc(Cl)c2OC)cc(/C=N/OC(=O)c2c(Cl)ccc(Cl)c2OC)c1` [Compound A-99], for which the pest or weed control at 140 g/ha in test [1] is 84%; in test [2], 96%; in test [3] (setting [8]), 93%; in test [4] (AMAPA), 90%; in test [5], 97%. Further, the pest or weed control at 280 g/ha in test [1] was 78%; in test [2] it was 95%; in test [3] (setting [8]) it was 95%; in test [4] (AMAPA) it was 80%; in test [5] it was 99%.
With `COc1c(Cl)ccc(Cl)c1C(=O)NOC1CCCCO1` (stereo not shown) [Compound A-100], the pest or weed control at 140 g/ha in test [1] worked out at 0%; in test [2], 5%; in test [3] (setting [8]) it was 0%; in test [4] (AMAPA) it was 0%; in test [5], 8%. Also, the pest or weed control at 280 g/ha in test [1] came to 19%; in test [2] it was 20%; in test [3] (setting [8]), 0%; in test [4] (AMAPA), 15%; in test [5], 13%.
Turning to `C=CCONC(=O)c1c(Cl)ccc(Cl)c1OC` [Compound A-101], the pest or weed control at 140 g/ha in test [1] amounted to 18%; in test [2], 25%; in test [3] (setting [8]) it was 0%; in test [4] (AMAPA), 18%; in test [5], 0%. The pest or weed control at 280 g/ha in test [1] came to 33%; in test [2] it was 15%; in test [3] (setting [8]), 0%; in test [4] (AMAPA) it was 13%; in test [5] it was 8%.
